Values quoted from earlier work, collected in patent US20090306027A1 (priority 2006, published 2009).
Structures can show the parent of a compound that is named as a salt.

solubility in alcohol (alcohol) | solubility in ether (ether) | SMILES | solubility in organic solvents (organic solvents such as ethanol, ether and chloroform) | solubility in water
 |  | O=[N+]([O-])O[C@H]1CO[C@H]2[C@@H]1OC[C@H]2O[N+](=O)[O-] [Diluted isosorbide dinitrate, 1,4,3,6-dianhydro-D-glucitol-2,5-dinitrate] | freely soluble | sparingly soluble
slightly soluble | very slightly soluble | NNc1nncc2ccccc12 [Hydralazine hydrochloride, hydralazine hydrochloride] |  | soluble
